Calls of active or inactive are those of the source.
Key:
[1] = microbe, parasite or virus in culture; type: functional; conditions: Mycobacterium tuberculosis
[2] = inhibitors of HIV Env-driven cell fusion, dose response, cherry-pick (AID 652057); type: functional, cell-based
[3] = CEM21 lymphoblast cell cytotoxicity, dose response, cytotoxicity control for viral fusion inhibitor project, CellTiter-Glo luminescence, cherry-picked (AID 652042); type: functional, cell-based;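 also: potency for signal decrease meaning cytotoxicity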
[4] = ZM109 Env clade C HIV-1 fusion inhibitors, dose response, HeLa effector, CEM target cells, luciferase, cherry-pick (AID 652058); type: functional, cell-based
[5] = off-target signal loss in HeLa-CEM21 co-culture – HeLa F-luc CTL cells, cherry-picked, counter-screen for HIV-1 Env fusion inhibitor project, dose response (AID 652040); type: functional, cell-based;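 also: potency for signal decrease marking cytotoxic or nonspecific inhibition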
[6] = inhibitors of clade B AD8 Env fusion, dose response, cell-based, cherry-pick (AID 652062); type: functional;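 also: luciferase signal from cell-cell fusion driven by HIV-1 clade B AD8 Env; potency is for inhibitors of fusion seen as a drop in luminescence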
P388/ADR = test: cells; type: functional; conditions: Mus musculus
SN12K1 = test: cells; type: functional; conditions: Homo sapiens
P388 = test: cells; type: functional; conditions: Mus musculus
Caspase-3 = biological target: T1, Caspase-3 (Homo sapiens, UniProt P42574); type: functional;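 also: Dose-response selectivity test against caspase-3 for candidate inhibitors of sentrin-specific proteases (SENPs)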
T1 sequence (P42574 whole entry): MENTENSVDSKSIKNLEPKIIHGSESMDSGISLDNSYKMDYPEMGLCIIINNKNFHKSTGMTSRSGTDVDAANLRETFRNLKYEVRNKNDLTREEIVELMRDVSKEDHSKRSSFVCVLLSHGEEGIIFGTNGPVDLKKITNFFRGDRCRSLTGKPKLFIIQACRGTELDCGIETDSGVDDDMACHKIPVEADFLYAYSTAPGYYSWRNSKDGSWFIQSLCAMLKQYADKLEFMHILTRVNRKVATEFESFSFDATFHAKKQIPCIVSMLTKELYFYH

[7] = biological target: T2, Sentrin-specific protease 7 (Homo sapiens, UniProt Q9BQF6); type: functional;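 also: Luminescence-based dose-response confirmation of ultra-high-throughput screening hits, measuring inhibition of SENP7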
T2 sequence (Q9BQF6 whole entry): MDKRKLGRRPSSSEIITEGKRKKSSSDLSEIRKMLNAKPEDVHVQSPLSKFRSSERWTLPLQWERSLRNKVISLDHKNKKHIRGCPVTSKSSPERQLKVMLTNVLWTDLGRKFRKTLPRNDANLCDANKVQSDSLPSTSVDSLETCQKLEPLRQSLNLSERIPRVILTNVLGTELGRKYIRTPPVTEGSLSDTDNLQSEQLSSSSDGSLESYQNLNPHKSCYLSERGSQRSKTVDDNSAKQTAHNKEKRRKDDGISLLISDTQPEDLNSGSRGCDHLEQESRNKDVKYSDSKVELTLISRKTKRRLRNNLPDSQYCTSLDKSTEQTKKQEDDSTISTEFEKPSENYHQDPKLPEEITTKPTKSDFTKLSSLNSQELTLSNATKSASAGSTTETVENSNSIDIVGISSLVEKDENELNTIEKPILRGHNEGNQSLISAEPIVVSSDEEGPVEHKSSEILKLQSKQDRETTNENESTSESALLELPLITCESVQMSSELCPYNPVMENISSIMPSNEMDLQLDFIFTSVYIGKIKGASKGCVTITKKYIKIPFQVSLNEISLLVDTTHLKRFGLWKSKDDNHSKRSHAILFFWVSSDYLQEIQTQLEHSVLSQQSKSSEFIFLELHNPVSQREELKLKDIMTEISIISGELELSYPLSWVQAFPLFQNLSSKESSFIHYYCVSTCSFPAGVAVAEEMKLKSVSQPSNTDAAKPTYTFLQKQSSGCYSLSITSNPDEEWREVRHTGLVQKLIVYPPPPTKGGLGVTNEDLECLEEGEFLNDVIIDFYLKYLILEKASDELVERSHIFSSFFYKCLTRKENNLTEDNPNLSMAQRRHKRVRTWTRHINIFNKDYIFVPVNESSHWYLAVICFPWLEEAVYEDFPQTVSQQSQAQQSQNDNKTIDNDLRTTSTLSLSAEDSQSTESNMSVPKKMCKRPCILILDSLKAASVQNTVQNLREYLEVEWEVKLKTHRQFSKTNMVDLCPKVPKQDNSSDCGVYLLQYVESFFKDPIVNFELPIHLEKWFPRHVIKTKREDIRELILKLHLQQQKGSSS

[8] = biological target: T3, Sentrin-specific protease 6 (Homo sapiens, UniProt Q9GZR1); type: functional;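 also: Luminescence-based dose-response confirmatory assay of SENP6 inhibition, following up an ultra-high-throughput screen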
T3 sequence (Q9GZR1 whole entry): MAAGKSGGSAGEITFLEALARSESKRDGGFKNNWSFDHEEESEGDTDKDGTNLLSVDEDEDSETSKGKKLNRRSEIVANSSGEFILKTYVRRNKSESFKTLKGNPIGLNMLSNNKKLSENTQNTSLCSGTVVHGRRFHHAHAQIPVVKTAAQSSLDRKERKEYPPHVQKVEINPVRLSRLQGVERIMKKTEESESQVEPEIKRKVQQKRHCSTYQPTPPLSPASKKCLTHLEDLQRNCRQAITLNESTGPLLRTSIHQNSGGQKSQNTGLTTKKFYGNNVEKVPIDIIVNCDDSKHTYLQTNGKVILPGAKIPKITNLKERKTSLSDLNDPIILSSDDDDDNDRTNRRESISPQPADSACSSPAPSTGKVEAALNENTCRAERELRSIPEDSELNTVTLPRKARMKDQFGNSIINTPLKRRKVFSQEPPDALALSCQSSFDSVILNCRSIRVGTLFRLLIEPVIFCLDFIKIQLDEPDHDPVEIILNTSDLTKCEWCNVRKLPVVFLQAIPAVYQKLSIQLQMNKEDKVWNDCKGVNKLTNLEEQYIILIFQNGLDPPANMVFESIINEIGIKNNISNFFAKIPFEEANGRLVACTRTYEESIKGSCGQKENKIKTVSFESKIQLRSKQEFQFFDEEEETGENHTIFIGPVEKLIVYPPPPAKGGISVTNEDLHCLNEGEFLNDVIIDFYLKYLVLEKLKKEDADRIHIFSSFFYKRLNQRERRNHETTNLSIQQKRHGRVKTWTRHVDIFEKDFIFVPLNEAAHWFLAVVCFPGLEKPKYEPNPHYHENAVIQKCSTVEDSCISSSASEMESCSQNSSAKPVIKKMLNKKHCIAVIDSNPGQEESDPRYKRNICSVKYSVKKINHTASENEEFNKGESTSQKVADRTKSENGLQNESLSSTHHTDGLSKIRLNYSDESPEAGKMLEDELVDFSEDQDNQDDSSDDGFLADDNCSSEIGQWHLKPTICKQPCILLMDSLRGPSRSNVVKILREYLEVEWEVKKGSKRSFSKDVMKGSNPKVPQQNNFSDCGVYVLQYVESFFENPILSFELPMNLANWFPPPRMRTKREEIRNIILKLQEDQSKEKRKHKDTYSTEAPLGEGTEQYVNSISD

[9] = biological target: T4, Sentrin-specific protease 8 (Homo sapiens, UniProt Q96LD8); type: functional;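 also: luminescence read-out of SENP8 inhibition, dose-response confirmation following an ultra-high-throughput screen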
T4 sequence (Q96LD8 whole entry): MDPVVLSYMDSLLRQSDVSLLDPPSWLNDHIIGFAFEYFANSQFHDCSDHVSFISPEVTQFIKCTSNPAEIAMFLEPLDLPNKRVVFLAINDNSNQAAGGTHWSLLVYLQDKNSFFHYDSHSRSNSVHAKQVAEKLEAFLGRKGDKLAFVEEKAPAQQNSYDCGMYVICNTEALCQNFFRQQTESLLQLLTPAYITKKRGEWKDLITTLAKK

[10] = miR-122 activators in hepatoma reporter cells, dose response, cell-based, Huh7 psiCHECK-miR122, Renilla luciferase, cherry-picked (AID 651956); type: functional;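 also: huh7 hepatoma cells stably carrying a psiCHECK-2 miR-122 sensor plasmid; renilla luciferase signal reporting endogenous miR-122 activity after 48 h compound exposure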
[11] = HEK293T cytotoxicity, dose response, cytotoxicity control for miR-122 modulator project, cell-based, activator set, cherry-pick (AID 720690); type: functional;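 also: HEK293T human cells scored for general mammalian cytotoxicity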
Beta-galactosidase = Beta-galactosidase (Escherichia coli, UniProt Q8VNN2); test: Dose response counterscreen for EBI2 assay utilizing the enzyme, b-galactosidase.; type: functional
Leucine aminopeptidase = biological target: T5, Leucine aminopeptidase (Plasmodium falciparum 3D7, UniProt Q8IL11); test: P. falciparum M17LAP inhibitors, primary screen, biochemical, fluorogenic H-Leu-NHMec substrate, 1536-well (AID 1619); type: functional
T5 sequence (Q8IL11 whole entry): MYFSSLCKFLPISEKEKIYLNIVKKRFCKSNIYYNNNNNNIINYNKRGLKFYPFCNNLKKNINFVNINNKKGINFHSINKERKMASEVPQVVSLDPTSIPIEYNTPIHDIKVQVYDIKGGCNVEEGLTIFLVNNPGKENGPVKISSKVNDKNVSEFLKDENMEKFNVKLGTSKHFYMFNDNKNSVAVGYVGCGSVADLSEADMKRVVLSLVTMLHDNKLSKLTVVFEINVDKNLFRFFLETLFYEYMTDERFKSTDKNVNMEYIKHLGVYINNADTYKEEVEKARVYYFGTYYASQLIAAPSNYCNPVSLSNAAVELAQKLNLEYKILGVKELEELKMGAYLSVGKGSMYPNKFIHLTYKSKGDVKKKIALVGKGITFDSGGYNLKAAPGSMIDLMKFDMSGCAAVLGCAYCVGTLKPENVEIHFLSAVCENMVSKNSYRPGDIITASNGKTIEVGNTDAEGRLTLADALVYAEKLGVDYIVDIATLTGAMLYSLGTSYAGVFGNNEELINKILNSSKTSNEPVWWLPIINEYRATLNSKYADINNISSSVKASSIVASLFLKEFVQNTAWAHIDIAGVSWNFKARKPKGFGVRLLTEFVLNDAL

Large T antigen = Large T antigen (Simian virus 40, UniProt P03070); type: functional, Betapolyomavirus macacae;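 also: Confirmatory-stage PubChem screen for compounds that inhibit SV40 T antigen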
Chain of Large T antigen (P03070 whole entry): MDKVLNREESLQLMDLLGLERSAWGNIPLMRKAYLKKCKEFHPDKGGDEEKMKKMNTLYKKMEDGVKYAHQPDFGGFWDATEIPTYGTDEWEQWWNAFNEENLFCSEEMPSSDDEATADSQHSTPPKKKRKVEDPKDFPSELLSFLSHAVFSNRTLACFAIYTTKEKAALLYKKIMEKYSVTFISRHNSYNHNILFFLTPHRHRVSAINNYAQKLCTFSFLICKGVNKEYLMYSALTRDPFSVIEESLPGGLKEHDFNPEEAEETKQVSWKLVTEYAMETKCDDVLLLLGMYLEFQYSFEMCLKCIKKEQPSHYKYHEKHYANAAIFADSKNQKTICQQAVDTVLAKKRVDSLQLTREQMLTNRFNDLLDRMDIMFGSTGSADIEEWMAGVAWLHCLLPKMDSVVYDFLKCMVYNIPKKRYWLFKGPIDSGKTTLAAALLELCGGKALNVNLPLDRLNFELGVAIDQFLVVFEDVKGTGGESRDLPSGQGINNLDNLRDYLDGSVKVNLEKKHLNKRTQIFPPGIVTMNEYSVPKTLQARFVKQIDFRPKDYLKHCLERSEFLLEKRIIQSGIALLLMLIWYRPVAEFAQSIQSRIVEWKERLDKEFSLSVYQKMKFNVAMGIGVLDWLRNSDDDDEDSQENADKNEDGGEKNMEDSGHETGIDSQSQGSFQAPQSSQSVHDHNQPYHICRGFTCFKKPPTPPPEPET

Chain of Beta-galactosidase (Q8VNN2 whole entry): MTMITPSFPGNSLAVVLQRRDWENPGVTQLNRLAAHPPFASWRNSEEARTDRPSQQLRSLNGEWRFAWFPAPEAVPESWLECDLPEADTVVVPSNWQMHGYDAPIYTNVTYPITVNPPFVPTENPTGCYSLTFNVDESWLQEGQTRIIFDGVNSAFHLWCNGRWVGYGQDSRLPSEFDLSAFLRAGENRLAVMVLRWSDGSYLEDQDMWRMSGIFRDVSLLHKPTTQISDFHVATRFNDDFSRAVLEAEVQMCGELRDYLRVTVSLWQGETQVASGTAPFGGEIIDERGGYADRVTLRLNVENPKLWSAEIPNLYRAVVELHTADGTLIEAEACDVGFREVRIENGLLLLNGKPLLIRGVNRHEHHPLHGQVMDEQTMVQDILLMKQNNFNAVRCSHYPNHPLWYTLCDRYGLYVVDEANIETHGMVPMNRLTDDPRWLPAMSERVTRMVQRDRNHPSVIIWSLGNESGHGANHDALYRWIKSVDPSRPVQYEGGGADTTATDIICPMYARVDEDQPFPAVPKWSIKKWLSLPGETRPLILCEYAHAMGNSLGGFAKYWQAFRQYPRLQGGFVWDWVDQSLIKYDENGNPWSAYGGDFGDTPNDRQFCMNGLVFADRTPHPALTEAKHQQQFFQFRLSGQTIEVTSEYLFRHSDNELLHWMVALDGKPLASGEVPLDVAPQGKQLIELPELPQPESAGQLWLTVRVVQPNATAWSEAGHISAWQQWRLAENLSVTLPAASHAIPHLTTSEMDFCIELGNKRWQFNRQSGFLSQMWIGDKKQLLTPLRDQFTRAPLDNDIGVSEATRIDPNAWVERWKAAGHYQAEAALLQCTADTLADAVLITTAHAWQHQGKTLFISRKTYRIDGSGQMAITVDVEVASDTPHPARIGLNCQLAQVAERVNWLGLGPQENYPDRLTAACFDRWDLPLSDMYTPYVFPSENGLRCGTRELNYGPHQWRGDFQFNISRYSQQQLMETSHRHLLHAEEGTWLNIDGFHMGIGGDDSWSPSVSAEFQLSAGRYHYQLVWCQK

Cc1ccccc1-c1nc(CN2CCC(C(=O)NCCC3=CCCCC3)CC2)c(C)o1
CC50 [1]: > 40 µM (active) | AC50 [2]: 4.21 µM (active) | AC50 [3]: 25.6 µM (active) | AC50 [4]: 6.35 µM (active) | AC50 [5]: 7.7 µM (active) | AC50 [6]: 7.96 µM (active)

CCOC(=O)/C(O)=C1\C(=O)N(C)C(=O)C1c1ccc(OC)c(OC)c1 (configuration not stated)
GI50 (P388/ADR): > 31.6 µM (inactive) | GI50 (SN12K1): > 100 µM (inactive) | GI50 (P388): > 100 µM (inactive)

Nc1ccc(/C=C/c2ccc3ncccc3c2)cc1
IC50 (Caspase-3): 22.8 µM (active) | IC50 [7]: 10.4 µM (active) | IC50 [8]: 9.32 µM (active) | IC50 [9]: > 100 µM (inactive)

C[C@@H]1CCCCO[C@@H](CN(C)CC2CCCCC2)[C@H](C)CN([C@@H](C)CO)C(=O)c2cc(NC(=O)Nc3cccc4ccccc34)ccc2O1
AC50 [10]: 5.03 µM (active) | AC50 [11]: 47.3 µM (active)

COc1cc2c(cc1OC)C(Cc1c3ccccc3cc3ccccc13)N(C)CC2 (configuration not stated)
GI50 (P388/ADR): 15.8 µM (inactive) | GI50 (SN12K1): 15.5 µM (inactive) | GI50 (P388): 18.7 µM (inactive)

C[C@H](CO)N1C[C@H](C)[C@H](CN(C)S(=O)(=O)c2cccc(F)c2)Oc2ncc(C#CC3CCCCC3)cc2C1=O
AC50 [10]: 6.43 µM (active) | AC50 [11]: 32.3 µM (active)

Cc1[nH]c2ccc(C(=O)N3CCN(c4ccc(F)cc4)CC3)cc2c1C
IC50 (Beta-galactosidase): > 80 µM (inactive)

CN1CCN(C(=O)/C=C/c2ccc(Cl)c(Cl)c2)CC1
IC50 (Beta-galactosidase): > 80 µM (inactive)

Cc1cc(C)n(-c2ccc(C(=O)N3CCN(S(=O)(=O)c4ccc(Br)cc4Cl)CC3)cc2)n1
IC50 (Beta-galactosidase): > 80 µM (inactive)

CNC[C@@H]1Oc2cc(C#Cc3cccc(OC)c3)ccc2S(=O)(=O)N([C@@H](C)CO)C[C@@H]1C
AC50 [10]: 9.73 µM (active) | AC50 [11]: 14.9 µM (active)

CC1=C(C(=O)Nc2ccc(Cl)c(C(=O)OC(C)C)c2)SCCO1
GI50 (P388/ADR): 29.2 µM (inactive) | GI50 (SN12K1): 58.6 µM (inactive) | GI50 (P388): 23.2 µM (inactive)

CCOc1ccc(NC(S)=Nc2ccc(C)c([N+](=O)[O-])c2)cc1
IC50 (Beta-galactosidase): 131 µM (inactive)

CCN(CC)c1ccc(NC(=O)COC(=O)c2cccs2)cc1
IC50 (Leucine aminopeptidase): 15.7 µM (active) | IC50 (Large T antigen): 15.2 µM (active) | IC50 (Caspase-3): 16.2 µM (active) | IC50 [7]: 11.7 µM (active) | IC50 [8]: 98.2 µM (active) | IC50 [9]: > 100 µM (inactive)

CCC1(O)CC(OC2CC(N(C)C)C(OC3CC4OC5CC(=O)C(C)OC5OC4C(C)O3)C(C)O2)c2c(cc3c(c2O)C(=O)c2c(O)ccc(O)c2C3=O)C1C(=O)OC (configuration not stated)
GI50 (P388/ADR): 0.000703 µM (active) | GI50 (SN12K1): 0.00741 µM (active) | GI50 (P388): 0.000368 µM (active)

CN(C)C(CN)CC1=C(CC(CN)N(C)C)CCC1 (configuration not stated)
GI50 (P388/ADR): > 100 µM (inactive) | GI50 (SN12K1): > 100 µM (inactive) | GI50 (P388): > 100 µM (inactive)

COc1ccc2c3c([nH]c2c1)[C@@H](CO)N(C(=O)Nc1cccc(F)c1)CC31CCN(S(=O)(=O)c2ccccc2)CC1
AC50 [2]: 23.2 µM (active) | AC50 [3]: 21 µM (active)

CC(=O)Nc1ccc(C(=O)COC(=O)C2CCCCC2)c(F)c1
IC50 (Caspase-3): 17.5 µM (active) | IC50 [7]: 6.32 µM (active) | IC50 [8]: 20.4 µM (active) | IC50 [9]: 65.6 µM (active)
